# US20250064992A1, “IMAGING METHOD FOR DESIGNER RECEPTOR, ANTAGONIST OR AGONIST, PHARMACEUTICAL, AND COMPANION DIAGNOSTIC AGENT” (priority 2018, published 2025)
# Assays:
# [1] = target: T1, hM4D receptor (Homo sapiens, UniProt P08173, A203G/Y113C); assay: PET imaging with radiolabeled tracer, ligand binding potential image (cerebellum as reference region), hM4D expressed in right putamen; format: in vivo; parameters: expressed in transfected cells; host or cells: neurons of the right putamen of a live Japanese macaque, transduced with AAV2-CMV-hM4D; conditions: Japanese macaque
# Method: (§1) The head of Japanese macaque (male/5.5 kg) was fixed to a stereotaxic instrument under general anesthesia, and 6 μL of an adeno-associated virus (AAV) vector (AAV2-CMV-hM4D) for expressing an hM4D receptor in a nerve cell-specific manner was injected for 12 minutes by a Hamilton syringe (10 μL) into a middle portion of the right putamen read from a magnetic resonance imaging (MRI) image taken in advance. Note that, here, the CMV was a promotor for gene expression.
# (§2) On the day 427 days after the injection, a compound represented by Formula (II) (hereinafter may be referred to as [^11C]C22b) (364 MBq) serving as a radiolabeled tracer was intravenously administered under isoflurane anesthesia and subjected to PET scanning for 90 minutes.
# (§3) An image of a ligand binding potential was created from PET data integrated for 90 minutes using the cerebellum as a reference region (the binding potential (BP) in the cerebellum was determined as 1).
# [2] = system: hM4D receptor; conditions: Japanese macaque, PET 30 to 90 minutes after administration; for Whole brain amount of uptake of tracer: SUV; for Control region (hM4D-unexpressed region) amount of uptake of tracer: left putamen
# Method: (§4) The [^11C]C22b (Example 2) and [^11C]clozapine ([^11C]CLZ, Comparative Example 1) were compared for a property of visualizing hM4D expressed in the Japanese macaque used in Example 1. The hM4D receptor was expressed in the same manner as in Example 1.
# (§5) An average image integrated from 30 to 90 minutes after administration of a tracer was created based on a standardized uptake value (SUV) and an amount of uptake in the brain was calculated from PET imaging taken from 30 to 90 minutes after the administration in the frontal plane including the right putamen in which the hM4D was expressed.
# [3] = target: T1, hM4D receptor; conditions: Japanese macaque; for Selectivity (expressed region/unexpressed region): hM4D, ratio of tracer amount per volume; for hM4D-expressed region amount of uptake of tracer: right putamen, PET 30 to 90 minutes after administration
# Method: as §4, §5
# [4] = target: T2, hM3D receptor (Homo sapiens, UniProt P20309, A239G/Y149C); assay: PET imaging with radiolabeled tracer, ligand binding potential image (cerebellum as reference region), hM3D expressed in left amygdala; format: in vivo; conditions: Macaca mulatta
# T2 construct: expressed in transfected cells; host or cells: neurons of the left amygdala of live Macaca mulatta, transduced with AAV2-CMV-hM3D
# Method: as §1, with “Macaca mulatta (male/4.2” for “Japanese macaque (male/5.5”, “3” for “and 6”, “(AAV2-CMV-hM3D)” for “(AAV2-CMV-hM4D)”, “hM3D” for “hM4D”, “left amygdala” for “right putamen”
# (§6) On the day 57 days after the injection, the [^11C]C22b (277 MBq) serving as a radiolabeled tracer was intravenously administered under isoflurane anesthesia and subjected to PET scanning for 90 minutes.
# (§7) An image of a ligand binding potential was created from PET data integrated for 90 minutes using the cerebellum as a reference region (the binding potential (BP) of the cerebellum was determined as 1). A portion shown by an arrow in FIG. 6 represents the left amygdala into which the AAV vector has been injected.
# [5] = system: hM3D receptor; assay: as above; format: in vivo; conditions: Macaca mulatta, PET 90 minutes, cerebellum BP determined as 1, non-injection region
# Method: as §1, with “Macaca mulatta (male/4.2” for “Japanese macaque (male/5.5”, “3” for “and 6”, “(AAV2-CMV-hM3D)” for “(AAV2-CMV-hM4D)”, “hM3D” for “hM4D”, “left amygdala” for “right putamen”
# as §6, §7
# [6] = target: T3, hM4D (Homo sapiens, UniProt P08173, A203G/Y113C); assay: PET imaging of axon terminal (substantia nigra pars reticulata), projection target of hM4D-expressing nerve cell in right putamen; format: in vivo; conditions: Japanese macaque, PET average image 30 to 90 minutes after tracer
# T3 construct: expressed in transfected cells; host or cells: neurons of the right putamen of a live Japanese macaque, transduced with AAV2-CMV-hM4D
# T3 sequence (P08173 1-479 Y113C/A203G): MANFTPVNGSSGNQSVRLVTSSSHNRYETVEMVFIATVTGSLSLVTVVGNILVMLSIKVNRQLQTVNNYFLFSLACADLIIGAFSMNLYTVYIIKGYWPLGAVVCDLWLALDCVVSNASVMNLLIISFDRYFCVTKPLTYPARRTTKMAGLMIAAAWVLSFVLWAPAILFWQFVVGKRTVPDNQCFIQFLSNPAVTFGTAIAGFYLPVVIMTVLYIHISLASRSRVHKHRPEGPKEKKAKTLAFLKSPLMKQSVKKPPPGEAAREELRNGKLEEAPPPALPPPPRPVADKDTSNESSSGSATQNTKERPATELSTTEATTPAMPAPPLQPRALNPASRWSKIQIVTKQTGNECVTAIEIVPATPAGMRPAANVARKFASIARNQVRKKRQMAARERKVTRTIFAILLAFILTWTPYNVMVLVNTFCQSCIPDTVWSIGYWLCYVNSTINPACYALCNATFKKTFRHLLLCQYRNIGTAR
# Method: (§8) Specifically, the [^11C]C22b was exogenously administered as a tracer in the same manner as in Example 1 and subjected to PET scanning for 90 minutes.
# (§9) Specifically, the compound represented by […] ([^11C]C22b) was exogenously administered as a tracer and subjected to PET scanning for 90 minutes.
# [7] = target: T2, hM3D receptor; format: in vivo; conditions: Macaca mulatta
# Method: as §1, with “Macaca mulatta (male/4.2” for “Japanese macaque (male/5.5”, “3” for “and 6”, “(AAV2-CMV-hM3D)” for “(AAV2-CMV-hM4D)”, “hM3D” for “hM4D”, “left amygdala” for “right putamen”
# as §6
# [8] = system: hM3D receptor; format: in vivo; conditions: Macaca mulatta
# Method: as §1, with “Macaca mulatta (male/4.2” for “Japanese macaque (male/5.5”, “3” for “and 6”, “(AAV2-CMV-hM3D)” for “(AAV2-CMV-hM4D)”, “hM3D” for “hM4D”, “left amygdala” for “right putamen”
# as §6
# [9] = system: hM4D receptor; assay: PET imaging with radiolabeled tracer, ligand binding potential image (cerebellum as reference region), hM4D expressed in right putamen; format: in vivo; conditions: Japanese macaque, PET 90 minutes, cerebellum BP determined as 1, non-injection region
# Method: as §1, §2, §3
# [10] = target: T2, hM3D receptor; assay: 18F-FDG PET glucose metabolism, C22b 1 μg/kg versus solvent, one-way repeated measures ANOVA, hM3D in left amygdala; format: in vivo, monkey; conditions: Macaca mulatta
# Method: Then, the AAV vector was injected into Macaca mulatta different from in Example 3 (male, 3 kg) in the same manner as in Example 3. On the day 70 days after, a C22b compound solution (1 μg/kg) or a solvent was intravenously administered under isoflurane anesthesia, 1 minute later, ^18F-FDG (224 to 286 MBq) was intravenously administered, and then subjected to PET scanning for 120 minutes. The process was performed four times for each intravenous dose. Note that the solvent was the same as a solvent used for the C22b compound solution (solvent: 0.1 mL/kg of saline containing 1% dimethyl sulfoxide and 5% Tween 20 (surfactant)).
# A glucose metabolism image (whole brain activity) when an average of the whole brain was determined as 100% was created from PET data integrated from 30 minutes to 60 minutes after the administration. Then, a site in which the C22b administration caused a statistically significant change compared to a solvent administration was analyzed by one-way repeated measures ANOVA using MATLAB (R2016a) and SPM12.
# [11] = target: T2, hM3D receptor; assay: 18F-FDG PET glucose metabolism image after C22b 0.1 mg/kg, hM3D expressed in left amygdala; format: in vivo; conditions: Macaca mulatta
# Method: On the day 65 days after the AAV vector was injected, a C22b compound (0.1 mg/kg) was intravenously administered to the same Macaca mulatta as in Example 3 under isoflurane anesthesia, 1 minute later, ^18F-FDG (263 MBq) was intravenously administered, and then subjected to PET scanning for 90 minutes. Note that, here, the C22b compound was HY-42110 (manufactured by MedChem Express) which was the compound represented by Formula (III) in which R^1 was methyl, X was imino, and R^2 was hydrogen.
# A glucose metabolism image (whole Brain Activity) when an average in the whole brain was determined as 100% was created from PET data integrated for 90 minutes.
# [12] = system: hM4D; assay: PET imaging of axon terminal (substantia nigra pars reticulata), projection target of hM4D-expressing nerve cell in right putamen; format: in vivo; conditions: Japanese macaque, PET average image 30 to 90 minutes after tracer
# Method: as §8, §9
# T2 sequence (P20309 whole entry Y149C/A239G, the tested form may be a part): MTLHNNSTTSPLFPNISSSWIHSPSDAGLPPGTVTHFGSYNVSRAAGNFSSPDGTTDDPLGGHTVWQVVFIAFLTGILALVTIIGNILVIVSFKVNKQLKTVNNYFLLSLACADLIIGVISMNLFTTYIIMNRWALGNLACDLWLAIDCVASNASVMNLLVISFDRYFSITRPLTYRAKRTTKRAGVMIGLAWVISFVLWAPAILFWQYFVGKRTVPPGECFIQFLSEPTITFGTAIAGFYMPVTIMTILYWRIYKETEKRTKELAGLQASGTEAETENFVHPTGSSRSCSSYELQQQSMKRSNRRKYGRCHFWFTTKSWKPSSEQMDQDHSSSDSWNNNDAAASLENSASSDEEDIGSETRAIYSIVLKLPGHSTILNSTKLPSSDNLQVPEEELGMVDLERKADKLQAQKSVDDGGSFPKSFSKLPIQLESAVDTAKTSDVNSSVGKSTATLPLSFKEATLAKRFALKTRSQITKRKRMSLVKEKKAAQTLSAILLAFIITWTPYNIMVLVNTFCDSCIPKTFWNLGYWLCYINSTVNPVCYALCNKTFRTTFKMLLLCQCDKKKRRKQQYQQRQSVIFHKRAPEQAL
Structure (SMILES),"binding potential in the right putamen into which the AAV vector had been injected ([1]; i.v. tracer 364 MBq, PET 90 minutes, cerebellum BP determined as 1, hM4D-expressed region)",binding potential of injected region relative to non-injection region ([1]; right putamen (hM4D) vs left putamen) [times],Whole brain amount of uptake of tracer [2] [g/cc],Control region (hM4D-unexpressed region) amount of uptake of tracer [2] [g/cc],Selectivity (expressed region/unexpressed region) [3],hM4D-expressed region amount of uptake of tracer [3] [g/cc],"binding potential in the left amygdala into which the AAV vector had been injected ([4]; i.v. tracer 277 MBq, PET 90 minutes, cerebellum BP determined as 1, hM3D-expressed region)",binding potential of injected region relative to non-injection region ([4]; left amygdala (hM3D) vs right amygdala) [times],binding potential in control region (right amygdala) [5],visualisation of hM4D in the axon terminal (substantia nigra pars reticulata) [6],"Selectivity (expressed region/unexpressed region) ([7]; hM3D, ratio of tracer amount per volume)",hM3D-expressed region amount of uptake of tracer ([7]; left amygdala) [g/cc],Whole brain amount of uptake of tracer [8] [g/cc],Control region (hM3D-unexpressed region) amount of uptake of tracer ([8]; opposite region) [g/cc],binding potential in control region (left putamen) [9],"t-value for the AAV vector injected region (one-way repeated measures ANOVA) ([10]; C22b 1 μg/kg i.v. vs solvent, left amygdala)","glucose metabolism activity in left amygdala, C22b versus solvent administration ([10]; C22b 1 μg/kg i.v., 18F-FDG PET 30 to 60 minutes, uncorrected p<0.001)","glucose metabolism in left amygdala (AAV injected) relative to control region (right amygdala) ([11]; C22b 0.1 mg/kg i.v., 18F-FDG PET 90 minutes) [times]",action at hM3D receptor ([11]; glucose metabolism activated in hM3D-expressing left amygdala),binding to other nerve cells or brain tissues (off-target) [12]
[11CH3]N1CCC(C2=Nc3ccccc3Nc3ccccc32)CC1 [[^11C]C22b],3.07,11,2.47,2.74,2.31,6.32,1.05,3.4,0.31,hM4D was confirmed to be expressed in the axon terminal,1.45,3.77,2.42,2.60,0.28,–,–,–,–,–
CN1CCN(C2=Nc3ccccc3Nc3ccccc32)CC1 [C22b],–,–,–,–,–,–,–,–,–,–,–,–,–,–,–,> 5.2,significantly high,1.88,acted as an agonist,–
"CN1CCN(C2=Nc3cc(Cl)ccc3Nc3ccccc32)CC1 [[^11C]clozapine, [^11C]8-chloro-11-(4-methylpiperazine-1-yl)-5H-dibenzo[b,e] [1,4]diazepine, reference compound]",–,–,3.24,4.57,1.25,5.73,–,–,–,hM4D was confirmed to be expressed in the axon terminal,–,–,–,–,–,–,–,–,–,also allowed to bind to nerve cells other than the nerve cell of interest or brain tissues to some extent
